Reference: patent publication US9657057B2, “Dipeptide and tripeptide epoxy ketone protease inhibitors” (Onyx Therapeutics, Inc., priority 2013, dated 2017)
In brackets after ≈: the same amount, converted by molar mass.

Test: Solubility pH 7
Format: physicochemical
Settings: pH 7, aqueous buffer
`CC1=C(C(=O)N[C@H](C)C(=O)N[C@@H](Cc2c[nH]c3ccccc23)C(=O)N[C@@H](Cc2ccccc2)C(=O)[C@@]2(C)CO2)Cc2ccccc21` [Compound C-2003] gave a solubility of 0.7 µg/mL (≈ 1.13 µM). For `CC1=C(C(=O)N[C@@H](C)C(=O)N[C@@H](Cc2c[nH]c3ccccc23)C(=O)N[C@@H](Cc2ccccc2)C(=O)[C@@]2(C)CO2)Cc2ccccc21` [Compound C-2004], the solubility was 1.9 µg/mL (≈ 3.07 µM). `COc1ccc(C[C@H](NC(=O)[C@H](C)NC(C)=O)C(=O)N[C@@H](Cc2ccccc2)C(=O)[C@@]2(C)CO2)cc1` [Compound C-2005] showed a solubility of 735 µg/mL (≈ 1480 µM). In the case of `COC(=O)N[C@@H](C)C(=O)N[C@@H](Cc1ccc(OC)cc1)C(=O)N[C@@H](Cc1ccccc1)C(=O)[C@@]1(C)CO1` [Compound C-2009, Methyl ((S)-1-(((S)-3-(4-methoxyphenyl)-1-(((S)-1-((R)-2-methyloxiran-2-yl)-1-oxo-3-phenylpropan-2-yl)amino)-1-oxopropan-2-yl)amino)-1-oxopropan-2-yl)carbamate], the solubility is reported as 163 µg/mL (≈ 318 µM). `COc1ccc(C[C@H](NC(=O)[C@@H](C)NC(=O)c2ccc3[nH]ncc3c2)C(=O)N[C@@H](CC2CCCC2)C(=O)[C@@]2(C)CO2)cc1` [Compound C-2061, N—((R)-1-(((S)-1-(((S)-3-cyclopentyl-1-((R)-2-methyloxiran-2-yl)-1-oxopropan-2-yl)amino)-3-(4-methoxyphenyl)-1-oxopropan-2-yl)amino)-1-oxopropan-2-yl)-1H-indazole-5-carboxamide] showed a solubility of 26.3 µg/mL (≈ 44.6 µM). With `COc1ccc(C[C@H](NC(=O)[C@@H](C)NC(=O)c2ccc3[nH]cnc3c2)C(=O)N[C@@H](CC2CCCC2)C(=O)[C@@]2(C)CO2)cc1` [Compound C-2062, N—((R)-1-(((S)-1-(((S)-3-cyclopentyl-1-((R)-2-methyloxiran-2-yl)-1-oxopropan-2-yl)amino)-3-(4-methoxyphenyl)-1-oxopropan-2-yl)amino)-1-oxopropan-2-yl)-1H-benzo[d]imidazole-5-carboxamide] the solubility was 56 µg/mL (≈ 95 µM). Compound `COc1ccc(C[C@H](NC(=O)[C@@H](C)NC(=O)c2ccc3cn[nH]c3c2)C(=O)N[C@@H](CC2CCCC2)C(=O)[C@@]2(C)CO2)cc1` [Compound C-2063, N—((R)-1-(((S)-1-(((S)-3-cyclopentyl-1-((R)-2-methyloxiran-2-yl)-1-oxopropan-2-yl)amino)-3-(4-methoxyphenyl)-1-oxopropan-2-yl)amino)-1-oxopropan-2-yl)-1H-indazole-6-carboxamide] has a solubility of 21.4 µg/mL (≈ 36.3 µM). Compound `COc1ccc(C[C@H](NC(=O)[C@H](C)NC(=O)Cc2cnc(N)s2)C(=O)N[C@@H](CC2=CCCC2)C(=O)[C@@]2(C)CO2)cc1` [Compound C-2066, (S)-2-((S)-2-(2-(2-aminothiazol-5-yl)acetamido)propanamido)-N—((S)-3-(cyclopent-1-en-1-yl)-1-((R)-2-methyloxiran-2-yl)-1-oxopropan-2-yl)-3-(4-methoxyphenyl)propanamide] has a solubility of 43.6 µg/mL (≈ 74.7 µM). Work on `COc1ccc(C[C@H](NC(=O)[C@H](C)NC(=O)Cc2cnc(N(C)C)s2)C(=O)N[C@@H](CC2=CCCC2)C(=O)[C@@]2(C)CO2)cc1` [Compound C-2067, (S)—N—((S)-3-(cyclopent-1-en-1-yl)-1-((R)-2-methyloxiran-2-yl)-1-oxopropan-2-yl)-2-((S)-2-(2-(2-(dimethylamino)thiazol-5-yl)acetamido)propanamido)-3-(4-methoxyphenyl)propanamide] yielded a solubility of 61.6 µg/mL (≈ 101 µM). `COc1ccc(C[C@H](NC(=O)[C@H](C)NC(=O)Cc2cnc(N3CCC3)s2)C(=O)N[C@@H](CC2=CCCC2)C(=O)[C@@]2(C)CO2)cc1` [Compound C-2068, (S)-2-((S)-2-(2-(2-(azetidin-1-yl)thiazol-5-yl)acetamido)propanamido)-N—((S)-3-(cyclopent-1-en-1-yl)-1-((R)-2-methyloxiran-2-yl)-1-oxopropan-2-yl)-3-(4-methoxyphenyl)propanamide] showed a solubility of 54.6 µg/mL (≈ 87.5 µM).
